Experimental data published in ChEMBL document CHEMBL1201862, “PubChem BioAssay data set” (2004).
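1) Cells in 96-well plates. 2) Compound, 48 h, 5 concentrations. 3) Linear interpolation between surrounding doses. 4) Unreached endpoint = highest concentration. GI50 marks 50% less growth.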 Calls of active or inactive are those of the source. Rule as the data show it: active = GI50 up to about 1.1 µM and inactive = higher.

Tests used:
Test in all cases: growth of human tumour cells (NCI), 48 h
786-0 = tested on: 786-0
MDA-N = tested on: MDA-N
SNB-78 = tested on: SNB-78
DMS-114 = tested on: DMS-114
M19-MEL = tested on: M19-MEL
DMS-273 = tested on: DMS-273
DLD-1 = tested on: DLD-1
HOP-18 = tested on: HOP-18
RXF 631 = tested on: RXF 631

COc1ccc(CCCC(=O)O)c(C)c1
GI50 (786-0): 30.1 µM (inactive) | GI50 (MDA-N): 62.4 µM (inactive)

Cc1c2ccncc2cc2c1[nH]c1ccccc12
GI50 (SNB-78): 13 µM (inactive) | GI50 (DMS-114): 5.27 µM (inactive) | GI50 (M19-MEL): 3.81 µM (inactive) | GI50 (DMS-273): 1.19 µM (inactive) | GI50 (DLD-1): 5.01 µM (inactive) | GI50 (HOP-18): 0.789 µM (active)

COc1nc2[nH]ccc2c(=O)[nH]1
GI50 (SNB-78): > 100 µM (inactive) | GI50 (DMS-114): > 100 µM (inactive) | GI50 (RXF 631): > 100 µM (inactive) | GI50 (DLD-1): > 100 µM (inactive) | GI50 (HOP-18): 42.7 µM (inactive)

COc1cc(C(=O)C/C(CCC(=O)Nc2ccc(Cl)cc2Cl)=N/NC(=O)C(=O)NN)ccc1O
GI50 (DMS-114): > 100 µM (inactive) | GI50 (M19-MEL): > 100 µM (inactive) | GI50 (786-0): > 100 µM (inactive) | GI50 (RXF 631): > 100 µM (inactive) | GI50 (DLD-1): > 100 µM (inactive) | GI50 (HOP-18): > 100 µM (inactive)

c1ccc(CSC(SCc2ccccc2)c2cccc3ccccc23)cc1
GI50 (MDA-N): > 10 µM (inactive)

COC1OC(=O)[C@H]2O[N+]([O-])=C(C)[C@@H]12 (some centres undefined)
GI50 (SNB-78): > 100 µM (inactive) | GI50 (DMS-114): > 100 µM (inactive) | GI50 (M19-MEL): > 100 µM (inactive) | GI50 (DLD-1): > 100 µM (inactive) | GI50 (HOP-18): > 100 µM (inactive)

Cc1cn(Cc2cnnn2CC2OC(n3cc(C)c(=O)[nH]c3=O)CC2O)c(=O)[nH]c1=O (centres undefined)
GI50 (MDA-N): > 100 µM (inactive)

Cc1cc(N(CCC#N)S(=O)(=O)c2ccccc2)ccc1/C=N\c1cccc(C(=O)O)c1
GI50 (SNB-78): > 100 µM (inactive) | GI50 (DMS-114): 61 µM (inactive) | GI50 (M19-MEL): > 100 µM (inactive) | GI50 (RXF 631): > 100 µM (inactive) | GI50 (HOP-18): > 100 µM (inactive)

FC(F)(F)C(C1=NC(C(F)(F)F)(C(F)(F)F)N=C(N2CCOCC2)O1)C(F)(F)F
GI50 (MDA-N): 19.1 µM (inactive)

Cc1ccc([N+](=O)[O-])cc1NC(=O)C(=O)C(C(=O)c1ccccc1F)C1OC(=O)c2ccccc21 (centres undefined)
GI50 (SNB-78): > 100 µM (inactive) | GI50 (DMS-114): 16.5 µM (inactive) | GI50 (M19-MEL): 33.4 µM (inactive) | GI50 (DMS-273): 36.3 µM (inactive) | GI50 (RXF 631): 32.7 µM (inactive) | GI50 (DLD-1): 41.5 µM (inactive)

CCOC(=O)CSc1c(C(=O)OCC)c(=O)n(-c2ccccc2)c(=S)n1-c1ccccc1
GI50 (786-0): 85.5 µM (inactive) | GI50 (MDA-N): > 100 µM (inactive)

COc1ccc(NCC(=O)Nn2c(-c3ccccc3)nc3ccccc3c2=O)cc1
GI50 (786-0): 25.6 µM (inactive) | GI50 (MDA-N): 63.4 µM (inactive)

O=c1c2c3c(sc2nc(CN2CCNCC2)n1-c1ccccc1)CCCC3
GI50 (786-0): > 100 µM (inactive) | GI50 (MDA-N): 89.1 µM (inactive)

CC(=O)OCC1OC(n2c(-c3ccc(Cl)cc3)cc(-c3ccccc3)c(C#N)c2=S)C(OC(C)=O)C(OC(C)=O)C1OC(C)=O (centres undefined)
GI50 (786-0): 12.2 µM (inactive) | GI50 (MDA-N): 11.3 µM (inactive)

CN(C)c1ccc(C2SCC(=O)N2NS(=O)(=O)c2cccc(C(=O)O)c2)cc1 (centres undefined)
GI50 (786-0): 17.2 µM (inactive) | GI50 (MDA-N): > 100 µM (inactive)

NC1CCCCC1.O=P(O)(O)C(CSc1ccccc1)P(=O)(O)O
GI50 (SNB-78): > 100 µM (inactive) | GI50 (DMS-114): > 100 µM (inactive) | GI50 (M19-MEL): > 100 µM (inactive) | GI50 (DMS-273): > 100 µM (inactive) | GI50 (DLD-1): > 100 µM (inactive) | GI50 (HOP-18): > 100 µM (inactive)

N#CC1(CCCI)CCCC1
GI50 (SNB-78): 20.1 µM (inactive) | GI50 (DMS-114): 3.72 µM (inactive) | GI50 (M19-MEL): 5.36 µM (inactive) | GI50 (DMS-273): 4.55 µM (inactive) | GI50 (RXF 631): 1.34 µM (inactive) | GI50 (DLD-1): 19.1 µM (inactive) | GI50 (HOP-18): 13.5 µM (inactive)

CC1(C)COC2C(N(Cc3ccccc3)Cc3ccccc3)C(=O)N21 (centres undefined)
GI50 (SNB-78): 42.6 µM (inactive) | GI50 (M19-MEL): 73.8 µM (inactive) | GI50 (786-0): 31 µM (inactive) | GI50 (DLD-1): 50 µM (inactive) | GI50 (HOP-18): 50 µM (inactive)

CN(C)c1n/c(=N/c2ccc(/N=c3\nc(N(C)C)ss3)cc2)ss1
GI50 (SNB-78): 17.6 µM (inactive) | GI50 (DMS-114): 16.7 µM (inactive) | GI50 (M19-MEL): 20.3 µM (inactive) | GI50 (786-0): 63.7 µM (inactive) | GI50 (DMS-273): 28.8 µM (inactive) | GI50 (RXF 631): 22 µM (inactive) | GI50 (DLD-1): 13.4 µM (inactive) | GI50 (HOP-18): 54 µM (inactive)

N#Cc1c(-c2ccccc2)cn(C(=O)c2ccccc2)c1N
GI50 (786-0): > 100 µM (inactive) | GI50 (MDA-N): > 100 µM (inactive)

CCOC(=O)Nc1ccc(S(=O)(=O)NCCCl)cc1.CCOC(=O)Nc1ccc(S(=O)(=O)NCCCl)cc1.O=C(O)c1ccc(/N=N/Cl)cc1O
GI50 (SNB-78): > 100 µM (inactive) | GI50 (DMS-114): > 100 µM (inactive) | GI50 (M19-MEL): > 100 µM (inactive) | GI50 (DMS-273): > 100 µM (inactive) | GI50 (RXF 631): > 100 µM (inactive) | GI50 (DLD-1): > 100 µM (inactive) | GI50 (HOP-18): > 100 µM (inactive)

COc1ccc(C2COc3cc(O)c(O)cc3C2)cc1 (centres undefined)
GI50 (SNB-78): 38.3 µM (inactive) | GI50 (M19-MEL): 15.1 µM (inactive) | GI50 (DMS-273): 33.3 µM (inactive) | GI50 (DLD-1): 9.93 µM (inactive) | GI50 (HOP-18): 29.9 µM (inactive)

C=CCNC(=S)N/N=C1\C(=O)Nc2ccc([N+](=O)[O-])cc21
GI50 (MDA-N): 83 µM (inactive)
